This is an account of results in patent publication US9434711B2 (Janssen Pharmaceutica, NV, priority 2007, dated 2016).

The target in the assay is canine TRPM8 (Canis lupus familiaris, UniProt Q1A7N1). As to the kind of experiment: In Vitro Canine TRPM8 Functional Assay (Ca2+ fluorescence, icilin activation). The following applies: for IC50: HEK293 cells stably expressing canine TRPM8, icilin activation, eight-point dose-response, read-out: IC50; for inhibition at 0.5 µM / % Inh @ 0.5 (μM): compound at 0.5 μM; for inhibition at 0.5 µM: read-out: % Inh @ 0.5; for inhibition at 0.2 µM: read-out: % Inh @ 0.2. Format: cell-based. The method, then:
The functional activity of compounds of the formula (I) was determined by measuring changes in intracellular calcium concentration using a Ca^2+-sensitive fluorescent dye. The changes in fluorescent signal were monitored by a fluorescence plate reader, either a FLIPR™ (Molecular Devices) or FDSS (Hamamatsu).
At 24 hrs prior to assay, HEK293 cells stably expressing canine TRPM8 were seeded in culture medium in black wall, clear-base poly-D-lysine coated 384-well plates (BD Biosciences, NJ, USA) and grown overnight in 5% CO2 at 37° C. On assay day, growth media was removed and cells were loaded with Calcium 3 Dye (Molecular Devices) for 35 min at 37° C., under 5% CO2 and then for 25 min at room temperature and atmosphere. Subsequently, cells were tested for agonist-induced increases in intracellular Ca^2+ levels using FLIPR™ or FDSS. Cells were challenged with a compound of the Formula (I) (at varying concentrations) and intracellular Ca^2+ was measured for 5 min prior to the addition of icilin to all wells to achieve a final concentration that produces approximately an 80% maximal response. EC50 or IC50 values for compounds of the present invention were determined from eight-point dose-response studies. Curves were generated using the average of quadruplicate wells for each data point.

Setting [1] is: canine TRPM8, icilin activation.
[2] abbreviates: compound at 0.2 μM, canine TRPM8, icilin activation.

canine TRPM8, sequence (Q1A7N1 1-1104): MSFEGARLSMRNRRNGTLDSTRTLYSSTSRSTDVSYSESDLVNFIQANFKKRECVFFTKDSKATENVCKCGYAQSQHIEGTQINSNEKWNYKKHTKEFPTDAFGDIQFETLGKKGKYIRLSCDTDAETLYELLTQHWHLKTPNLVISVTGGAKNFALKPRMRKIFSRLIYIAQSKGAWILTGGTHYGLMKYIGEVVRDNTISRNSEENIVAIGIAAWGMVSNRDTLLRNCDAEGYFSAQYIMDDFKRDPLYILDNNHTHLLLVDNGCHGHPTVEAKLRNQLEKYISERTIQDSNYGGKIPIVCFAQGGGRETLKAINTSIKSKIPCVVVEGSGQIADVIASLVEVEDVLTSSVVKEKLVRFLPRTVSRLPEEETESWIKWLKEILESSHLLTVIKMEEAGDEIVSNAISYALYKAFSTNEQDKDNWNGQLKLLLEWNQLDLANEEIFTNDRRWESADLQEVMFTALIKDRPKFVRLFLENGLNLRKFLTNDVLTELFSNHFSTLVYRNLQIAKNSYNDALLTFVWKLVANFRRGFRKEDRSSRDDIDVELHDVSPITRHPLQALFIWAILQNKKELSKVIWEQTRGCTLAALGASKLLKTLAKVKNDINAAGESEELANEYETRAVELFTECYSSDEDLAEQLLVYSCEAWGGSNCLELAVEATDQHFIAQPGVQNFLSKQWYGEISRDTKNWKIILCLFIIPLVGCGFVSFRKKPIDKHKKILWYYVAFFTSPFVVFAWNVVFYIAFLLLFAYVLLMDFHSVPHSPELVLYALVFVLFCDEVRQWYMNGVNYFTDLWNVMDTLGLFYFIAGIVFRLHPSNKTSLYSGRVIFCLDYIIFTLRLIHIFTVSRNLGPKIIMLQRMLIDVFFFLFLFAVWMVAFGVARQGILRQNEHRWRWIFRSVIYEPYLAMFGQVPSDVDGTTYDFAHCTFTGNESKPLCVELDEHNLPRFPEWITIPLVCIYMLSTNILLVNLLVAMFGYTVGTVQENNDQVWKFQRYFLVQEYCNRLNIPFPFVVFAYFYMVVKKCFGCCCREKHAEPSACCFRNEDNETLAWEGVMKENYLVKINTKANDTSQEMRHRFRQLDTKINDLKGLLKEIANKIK

As to `CCCS(=O)(=O)N(Cc1ccc(F)c(F)c1)c1cc2ccccc2s1` [Compound 36, N-(Benzo[b]thiophen-2-yl)-N-(3,4-difluoro-benzyl)-propane-1-sulfonamide], the IC50 is 77.1 nM. For the same compound, under setting [1], the inhibition at 0.5 µM is 98%.

Consider `CCCCS(=O)(=O)N(Cc1ccc(F)c(F)c1)c1cc2ccccc2s1` [Compound 37, N-(Benzo[b]thiophen-2-yl)-N-(3,4-difluoro-benzyl)-butane-1-sulfonamide], for which the half-maximal inhibitory concentration (IC50) turned out to be 98.3 nM. Further, the inhibition at 0.5 µM under setting [1] is 96%.

For the compound `Cc1c(N(Cc2ccc(C(F)(F)F)c(F)c2)S(=O)(=O)c2cccs2)sc2ccccc12` [Compound 38, N-(3-Fluoro-4-trifluoromethyl-benzyl)-N-(3-methyl-benzo[b]thiophen-2-yl)-thiophene-2-sulfonamide], the concentration for half-maximal inhibition (IC50) stood at 3 nM. Also, under setting [1], the inhibition at 0.5 µM amounted to 97%.

As to `Cc1c(N(Cc2ccc(F)c(C(F)(F)F)c2)S(=O)(=O)c2cccnc2)sc2ccccc12` [Compound 39, N-(4-Fluoro-3-trifluoromethyl-benzyl)-N-(3-methyl-benzo[b]thiophen-2-yl)-pyridine-3-sulfonamide], the IC50 was determined as 3.9 nM. Also, under setting [1], the inhibition at 0.5 µM was determined as 101%.

As for `CCS(=O)(=O)N(Cc1ccc(F)c(C(F)(F)F)c1)c1sc2ccccc2c1C` [Compound 40, N-(4-Fluoro-3-trifluoromethyl-benzyl)-N-(3-methyl-benzo[b]thiophen-2-yl)-ethanesulfonamide], the half-inhibitory concentration (IC50) was determined as 13.7 nM. For the same compound, the inhibition at 0.5 µM under setting [1] was determined as 97%.

For the compound `CCS(=O)(=O)N(Cc1ccc(F)c(F)c1)c1sc2ccccc2c1C` [Compound 41, N-(3,4-Difluoro-benzyl)-N-(3-methyl-benzo[b]thiophen-2-yl)-ethanesulfonamide], the IC50 stood at 5.4 nM. Besides, under setting [1], the inhibition at 0.5 µM is 99%.

With `CCS(=O)(=O)N(Cc1ccc(OC(F)(F)F)cc1)c1sc2ccccc2c1C` [Compound 42, N-(3-Methyl-benzo[b]thiophen-2-yl)-N-(4-trifluoromethoxy-benzyl)-ethanesulfonamide], the IC50 is 10.6 nM. For the same compound, the inhibition at 0.5 µM under setting [1] came out at 100%.

As to `CCS(=O)(=O)N(Cc1ccc(F)c(C(F)(F)F)c1)c1cc2ccccc2s1` [Compound 43, N-(Benzo[b]thiophen-2-yl)-N-(4-fluoro-3-trifluoromethyl-benzyl)-ethanesulfonamide], the IC50 stood at 25 nM. Besides, the inhibition at 0.5 µM under setting [1] stood at 94%.

As for `Cc1c(N(Cc2ccc(F)c(F)c2)S(=O)(=O)N(C)C)sc2ccccc12` [Compound 44, N-(3,4-Difluoro-benzyl)-N-(3-methyl-benzo[b]thiophen-2-yl)-N′,N′-dimethylsulfamide], the half-maximal inhibitory concentration (IC50) amounted to 7 nM. Moreover, under setting [1], the inhibition at 0.5 µM amounted to 98%.

For the compound `CS(=O)(=O)N(Cc1ccc(F)c(C(F)(F)F)c1)c1cc2ccccc2s1` [Compound 45, N-(Benzo[b]thiophen-2-yl)-N-(4-fluoro-3-trifluoromethyl-benzyl)-methanesulfonamide], the IC50 came out at 52 nM. The inhibition at 0.2 µM under setting [2] was 97%.

Regarding `O=S(=O)(c1ccccc1)N(Cc1ccc(Cl)cc1)c1cc2ccccc2s1` [Compound 46, N-(Benzo[b]thiophen-2-yl)-N-(4-chloro-benzyl)-benzenesulfonamide], the IC50 was 84 nM. Also, the inhibition at 0.5 µM under setting [1] stood at 99%.

Turning to `COc1ccccc1CN(c1cc2ccccc2s1)S(=O)(=O)c1ccccc1` [Compound 47, N-(Benzo[b]thiophen-2-yl)-N-(2-methoxy-benzyl)-benzenesulfonamide], the IC50 was determined as 112 nM. For the same compound, the inhibition at 0.5 µM under setting [1] was 97%.

In the case of `COc1cccc(CN(c2cc3ccccc3s2)S(=O)(=O)c2ccccc2)c1` [Compound 48, N-(Benzo[b]thiophen-2-yl)-N-(3-methoxy-benzyl)-benzenesulfonamide], the half-maximal inhibitory concentration (IC50) worked out at 79 nM. Besides, the inhibition at 0.5 µM under setting [1] came to 98%.

As to `COc1ccc(CN(c2cc3ccccc3s2)S(=O)(=O)c2ccccc2)cc1` [Compound 49, N-(Benzo[b]thiophen-2-yl)-N-(4-methoxy-benzyl)-benzenesulfonamide], the IC50 amounted to 170 nM. Moreover, the inhibition at 0.5 µM under setting [1] came to 90%.

Turning to `O=S(=O)(c1ccccc1)N(Cc1ccccc1F)c1cc2ccccc2s1` [Compound 50, N-(Benzo[b]thiophen-2-yl)-N-(2-fluoro-benzyl)-benzenesulfonamide], the IC50 amounted to 66 nM. Moreover, the inhibition at 0.5 µM under setting [1] came out at 99%.

As to `O=[N+]([O-])c1cccc(CN(c2cc3ccccc3s2)S(=O)(=O)c2ccccc2)c1` [Compound 51, N-(Benzo[b]thiophen-2-yl)-N-(3-nitro-benzyl)-benzenesulfonamide], the IC50 was determined as 78 nM. Besides, under setting [1], the inhibition at 0.5 µM came to 98%.

With `O=S(=O)(c1ccccc1)N(Cc1ccccn1)c1cc2ccccc2s1` [Compound 52, N-(Benzo[b]thiophen-2-yl)-N-(pyridin-2-ylmethyl)-benzenesulfonamide], the concentration for half-maximal inhibition (IC50) turned out to be 116 nM. Under setting [1], the inhibition at 0.5 µM came out at 99%.

As to `O=S(=O)(c1ccccc1)N(Cc1cccnc1)c1cc2ccccc2s1` [Compound 53, N-(Benzo[b]thiophen-2-yl)-N-(pyridin-3-ylmethyl)-benzenesulfonamide], the IC50 is 164 nM. Moreover, under setting [1], the inhibition at 0.5 µM worked out at 97%.

Regarding `O=S(=O)(c1ccccc1)N(Cc1ccncc1)c1cc2ccccc2s1` [Compound 54, N-(Benzo[b]thiophen-2-yl)-N-(pyridin-4-ylmethyl)-benzenesulfonamide], the inhibition at 0.5 µM under setting [1] is 65%.

Turning to `O=[N+]([O-])c1ccccc1CN(c1cc2ccccc2s1)S(=O)(=O)c1ccccc1` [Compound 55, N-(Benzo[b]thiophen-2-yl)-N-(2-nitro-benzyl)-benzenesulfonamide], the half-inhibitory concentration (IC50) was determined as 65.5 nM. Further, under setting [1], the inhibition at 0.5 µM was determined as 99%.

`O=S(=O)(c1ccccc1)N(Cc1ccccc1OC(F)(F)F)c1cc2ccccc2s1` [Compound 56, N-(Benzo[b]thiophen-2-yl)-N-(2-trifluoromethoxy-benzyl)-benzenesulfonamide]: the IC50 amounted to 103 nM. Under setting [1], the inhibition at 0.5 µM was found to be 99%.

On to `O=S(=O)(c1ccccc1)N(Cc1cccc(OC(F)(F)F)c1)c1cc2ccccc2s1` [Compound 57, N-(Benzo[b]thiophen-2-yl)-N-(3-trifluoromethoxy-benzyl)-benzenesulfonamide], for which the IC50 amounted to 108 nM. Further, under setting [1], the inhibition at 0.5 µM worked out at 100%.

For the compound `O=S(=O)(c1ccccc1)N(Cc1ccc(OC(F)(F)F)cc1)c1cc2ccccc2s1` [Compound 58, N-(Benzo[b]thiophen-2-yl)-N-(4-trifluoromethoxy-benzyl)-benzenesulfonamide], the IC50 amounted to 45.5 nM. For the same compound, the inhibition at 0.5 µM under setting [1] came to 98%.

As for `O=S(=O)(c1ccccc1)N(Cc1ccccc1)c1cc2ccccc2s1` [Compound 59, N-(Benzo[b]thiophen-2-yl)-N-(benzyl)-benzenesulfonamide], the IC50 came to 44.5 nM. Besides, under setting [1], the inhibition at 0.5 µM amounted to 98%.

For the compound `COc1cc(CN(c2cc3ccccc3s2)S(=O)(=O)c2ccccc2)ccc1F` [Compound 60, N-(Benzo[b]thiophen-2-yl)-N-(4-fluoro-3-methoxy-benzyl)-benzenesulfonamide], the IC50 worked out at 28.3 nM. In addition, the inhibition at 0.5 µM under setting [1] is 97%.

Consider `O=S(=O)(c1ccccc1)N(Cc1ccc(F)c(C(F)(F)F)c1)c1cc2ccccc2s1` [Compound 61, N-(Benzo[b]thiophen-2-yl)-N-(4-fluoro-3-trifluoromethyl-benzyl)-benzenesulfonamide], for which the IC50 is 52.4 nM. Under setting [1], the inhibition at 0.5 µM was 95%.

For `Cc1ccccc1CN(c1cc2ccccc2s1)S(=O)(=O)c1ccccc1` [Compound 62], the IC50 was determined as 58.1 nM. For the same compound, under setting [1], the “% Inh @ 0.5 (μM)” value is listed as 98%.

As for `Cc1cccc(CN(c2cc3ccccc3s2)S(=O)(=O)c2ccccc2)c1` [Compound 63], the IC50 was found to be 74 nM. Further, the “% Inh @ 0.5 (μM)” value under setting [1] was found to be 98%.

`COc1ccc(S(=O)(=O)N(Cc2ccc(F)c(C(F)(F)F)c2)c2sc3ccccc3c2C)cc1F` [Compound 64, N-(4-Fluoro-3-trifluoromethyl-benzyl)-N-(3-methyl-benzo[b]thiophen-2-yl)-3-fluoro-4-methoxybenzenesulfonamide]: the IC50 came out at 19 nM. Further, the inhibition at 0.2 µM under setting [2] amounted to 96%.

In the case of `Cc1c(N(Cc2ccc(F)c(C(F)(F)F)c2)S(=O)(=O)c2ccc3ncsc3c2)sc2ccccc12` [Compound 65, N-(4-Fluoro-3-trifluoromethyl-benzyl)-N-(3-methyl-benzo[b]thiophen-2-yl)-benzothiazole-6-sulfonamide], the half-maximal inhibitory concentration (IC50) worked out at 17 nM. Moreover, the inhibition at 0.2 µM under setting [2] stood at 97%.

Consider `Cc1c(N(Cc2ccc(F)c(C(F)(F)F)c2)S(=O)(=O)c2ccc3[nH]c(=O)oc3c2)sc2ccccc12` [Compound 66, N-(4-Fluoro-3-trifluoromethyl-benzyl)-N-(3-methyl-benzo[b]thiophen-2-yl)-2-oxo-2,3-dihydro-benzooxazole-6-sulfonamide], for which the IC50 was 4 nM. Besides, under setting [2], the inhibition at 0.2 µM is 96%.

For `Cc1c(N(Cc2ccc(F)c(C(F)(F)F)c2)S(=O)(=O)c2ccc3c(c2)NC(=O)CO3)sc2ccccc12` [Compound 67], the IC50 turned out to be 55 nM. For the same compound, the “% Inh @ 0.2 (μM)” value under setting [2] is 77%.
